Assay results published in PMC11342128, “Gold(I) and gold(III) carbene complexes from the marine betaine norzooanemonin: inhibition of thioredoxin reductase, antiproliferative and antimicrobial activity” (RSC Medicinal Chemistry, 2024).
“And” between values parts separate entries of the source, which are not always exact repeats. Equal values may be shown once.

Legend:
[1] = system: A549 lung carcinoma cells; assay: Antiproliferative activity, crystal violet assay; type: cell-based; conditions: 72 h exposure, SD in parentheses, n = 3
Experimental: (§1) The antiproliferative potential of the gold–NHC complexes was determined in A549 lung carcinoma cells, MDA-MB-231 breast cancer cells, MCF-7 breast adenocarcinoma cells, and HT-29 colon carcinoma cells (Table 1). Vero E6 African green monkey kidney cells served as a reference cell line to check for possible tumour selectivity. Auranofin (AF) was used as an established reference drug.[15,17] […]
(§2) S2.2. Cytotoxicity and Anticancer Studies
(§3) Cell culture and cytotoxicity
(§4) Cell lines were sourced from DSMZ (German Collection of Microorganisms and Cell Cultures GmbH) and maintained through standard procedures in Dulbecco's Modified Eagle Medium (DMEM) supplemented with 10% fetal calf serum and 50 mg/L gentamycin. Antiproliferative effects were assessed using a well-established assay protocol. In brief, 100 μL volumes of A549 cells (13,243 cells per mL), HT-29 cells (14,657 cells per mL), MDA-MB-231 cells (6,613 cells per mL), or MCF-7 cells (6,917 cells per mL) were transferred into the wells of 96-well plates and incubated at 37°C/5% CO2 for 72 […]
(§5) Freshly prepared stock solutions of the compounds in DMSO were diluted with the respective cell culture medium to achieve graded concentrations (final concentration of DMSO: 0.1% v/v). After 72 hours (A549, HT-29) or 96 hours (MCF-7, MDA-MB-231) of exposure, the cell biomass was assessed through crystal violet staining, and the IC50 value was determined as the concentration causing 50% inhibition of cell proliferation compared to an untreated control. Results were calculated as the mean values of three independent experiments.

[2] = system: HT-29 colon carcinoma cells; assay: Antiproliferative activity, crystal violet assay; type: cell-based; conditions: 72 h exposure, SD in parentheses, n = 3
Experimental: as §1, §2, §3, §4, §5

[3] = system: MCF-7 breast adenocarcinoma cells; assay: Antiproliferative activity, crystal violet assay; type: cell-based; conditions: 96 h exposure, SD in parentheses, n = 3
Experimental: as §1, §2, §3, §4, §5

[4] = system: MDA-MB-231 breast cancer cells; assay: Antiproliferative activity, crystal violet assay; type: cell-based; conditions: 96 h exposure, SD in parentheses, n = 3
Experimental: as §1, §2, §3, §4, §5

[5] = system: Vero E6 African green monkey kidney cells; assay: Antiproliferative activity in non-tumour reference cell line; type: cell-based; conditions: for IC50: Vero E6 non-tumour reference cell line, SD in parentheses, n = 3; for Tumour selectivity: tumour cell lines in comparison to Vero E6: comparison of IC50 in tumour cell lines and non-tumour Vero E6
Experimental: as §1, §2, §3, §4, §5

[6] = system: Acinetobacter baumannii DSM30007; assay: Antibacterial activity (MIC, curve fitting); type: cell-based; conditions: for MIC, A.b.: Table 2, Acinetobacter baumannii DSM30007, 18 h, 37 °C; for MIC, A. baumannii: Table S12, ± standard error of the mean
Experimental: (§6) The antibacterial activity of all gold complexes was assessed against six pathogenic bacterial strains, including two Gram-positive species, i.e. Enterococcus faecium and methicillin-resistant Staphylococcus aureus (MRSA), and four Gram-negative species, i.e. Acinetobacter baumannii, Escherichia coli, Klebsiella pneumoniae, and Pseudomonas aeruginosa. Minimum inhibitory concentrations (MICs) were determined using a curve-fitting technique.
(§7) S2.1. Antibacterial Studies
(§8) Bacterial cultures were prepared by overnight aerobic incubation at 37 °C. Gram-negative strains were cultivated in Müller Hinton broth supplemented with 1% glucose at pH 7.2, while Gram-positive strains were grown in Trypticase soy yeast extract medium (TSY) with a composition of 30 g/l trypticase soy broth, 3 g/l yeast extract, and pH 7.2. The cultures were adjusted to an OD600 of 0.001, resulting in a final starting OD600 of 0.0005 for the subsequent tests. For testing, 25 μL of the prepared culture was combined with 25 μL of serially diluted test compounds in 384 well plates, following established protocols for different strains. Screening was performed at compound concentrations of 0.5, 5, and 50 µM, and for selected compounds, growth inhibition curves were recorded using DMSO stock solutions […]
(§9) Positive control compounds, namely linezolid (for MRSA strains), ciprofloxacin (for E. faecium and E. coli), and amikacin (for P. aeruginosa), were included. The maximum DMSO concentration in the assay […]
(§10) After an 18-hour incubation at 37 °C under moist conditions, the optical density at 600 nm was measured using a Fusion Universal Microplate Analyser (Perkin–Elmer, Waltham, USA). The minimum inhibitory concentration (MIC) values, representing the […]
(§11) fitting with Sigma Plot. The bacterial strains used included Gram-negative strains: Escherichia coli (DSM 1116), A. baumannii (DSM30007), K. pneumoniae (DSM111678), and Pseudomonas aeruginosa PA7 (DSM 24068); and Gram-positive strains: E. faecium (DSM20477) and Staphylococcus aureus MRSA

[7] = system: Enterococcus faecium DSM20477; assay: Antibacterial activity (MIC, curve fitting); type: cell-based; conditions: for MIC, E.f.: Table 2, Enterococcus faecium DSM20477, 18 h, 37 °C; for MIC, E. faecium: Table S12, ± standard error of the mean
Experimental: as §6, §7, §8, §9, §10, §11

[8] = system: Escherichia coli DSM 1116; assay: Antibacterial activity (MIC, curve fitting); type: cell-based; conditions: for MIC, E.c.: Table 2, Escherichia coli DSM 1116, 18 h, 37 °C; for MIC, E. coli: Table S12, ± standard error of the mean
Experimental: as §6, §7, §8, §9, §10, §11

[9] = system: Klebsiella pneumoniae DSM111678; assay: Antibacterial activity (MIC, curve fitting); type: cell-based; conditions: for MIC, K.p.: Table 2, Klebsiella pneumoniae DSM111678, 18 h, 37 °C; for MIC, K. pneumoniae: Table S12, ± standard error of the mean
Experimental: as §6, §7, §8, §9, §10, §11

[10] = system: Pseudomonas aeruginosa DSM 24068; assay: Antibacterial activity (MIC, curve fitting); type: cell-based; conditions: for MIC, P.a.: Table 2, Pseudomonas aeruginosa DSM 24068, 18 h, 37 °C; for MIC, P. aeruginosa: Table S12, ± standard error of the mean
Experimental: as §6, §7, §8, §9, §10, §11

[11] = system: methicillin-resistant Staphylococcus aureus DSM 11822; assay: Antibacterial activity (MIC, curve fitting); type: cell-based
Experimental: as §6, §7, §8, §9, §10, §11

TrxR from E. coli = TrxR from E. coli (Escherichia coli, UniProt P0A9P4); assay: Inhibition of isolated bacterial TrxR, DTNB-based assay; type: biochemical; parameters: purchased Sigma-Aldrich; conditions: for TrxR activity, % of control: compounds at 0.5 µM, n = 2, Table S13; for IC50: isolated E. coli TrxR, DTNB assay, ± standard deviation, n = 3
Experimental: The inhibition of isolated TrxR from E. coli was determined for the selected monocarbene gold(I/III) complexes 2a–c and 4b–c using a DTNB-based assay (Table 3). […] The inhibition of bacterial TrxR for compound 2a was investigated in our previous report (Table 3).
S2.3. Inhibition of bacterial TrxR from E. coli
The TrxR (E. coli) inhibition assay was performed according to previously published procedures.[8] The assay is partly based on the procedure developed by Lu et al[9] and makes use of the reduction of DTNB (5,5′-dithiobis-(2-nitrobenzoic acid)). Solutions of E. coli TrxR (10.1 U/mL) and E. coli thioredoxin (Trx) (312 μg/mL) (both purchased from Sigma-Aldrich) were prepared in distilled water. Stock solutions of the test compounds (2 mM) were prepared in DMSO and serially diluted with TE buffer (Tris-HCl 50 mM, EDTA 1 mM, pH 7.5). 20 μL of these solutions or TE buffer without the test compounds (positive control) were mixed with the TrxR solution (10 μL), the Trx solution (10 μL) and 100 µl of NADPH (200 μM) in TE buffer in a well on a 96-well plate. As a blank control, 200 μM NADPH in TE buffer (100 μL) mixed with a DMSO / buffer mixture (40 μL) was used (final concentrations of DMSO: 0.5% v/v). The plate was incubated for 75 min at 25°C with moderate shaking. After incubation, 100 μL of a reaction mixture (TE buffer containing 200 μM NADPH and 5 mM DTNB) was added to each well to initiate the reaction. After thorough mixing, the formation of 5-TNB was monitored by a microplate reader at 405 nm in 35 s intervals (10 measurements). The values were corrected by subtraction of the blank solution absorption values. The increase in concentration of 5-TNB followed a linear trend (r2≥ 0.990) and the enzymatic activities were calculated as the gradients (increase in absorbance per second) thereof. […]
for each test compound, where the highest test compound concentration was used and the enzyme solution was replaced by TE buffer. The inhibition is presented as the mean IC50 values and standard deviations obtained in three independent experiments.
Table S13. Activity of TrxR from E. coli in presence of compounds at 0.5 µM (n = 2, n.d.= not

[12] = Table 2, MRSA DSM 11822, 18 h, 37 °C
[13] = Table S12, ± standard error of the mean

Sequence of TrxR from E. coli (P0A9P4 2-321): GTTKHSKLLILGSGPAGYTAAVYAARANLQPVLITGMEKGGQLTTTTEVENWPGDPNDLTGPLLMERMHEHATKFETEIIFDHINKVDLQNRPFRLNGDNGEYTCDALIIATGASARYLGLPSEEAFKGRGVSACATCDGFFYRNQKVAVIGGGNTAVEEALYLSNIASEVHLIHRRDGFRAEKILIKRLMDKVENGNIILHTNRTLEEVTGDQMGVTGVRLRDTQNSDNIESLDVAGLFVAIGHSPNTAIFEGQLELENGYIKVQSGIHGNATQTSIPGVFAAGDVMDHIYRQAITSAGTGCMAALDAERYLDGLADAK

| Compound | IC50 [1] | IC50 [2] | IC50 [3] | IC50 [4] | IC50 [5] | MIC, A.b. [6] | MIC, A. baumannii [6] | MIC, E.f. [7] | MIC, E. faecium [7] | MIC, E.c. [8] | MIC, E. coli [8] | MIC, K.p. [9] | MIC, K. pneumoniae [9] | MIC, P.a. [10] | MIC, P. aeruginosa [10] | MIC, MRSA [11, 12] | MIC, MRSA [11, 13] | TrxR activity, % of control (TrxR from E. coli) | IC50 (TrxR from E. coli) | Tumour selectivity: tumour cell lines in comparison to Vero E6 [5] |
| --- | --- | --- | --- | --- | --- | --- | --- | --- | --- | --- | --- | --- | --- | --- | --- | --- | --- | --- | --- | --- |
| COC(=O)c1cn(C)[c]([Au-]([Cl])([Cl])[Cl])[n+]1C [4b] | 17.7 µM | 26.2 µM | 15.2 µM | 15.2 µM | 22.2 µM | 9 µM and 9 ± 2 µM | 8.74 ± 1.82 µM | 17 µM and 17 ± 0 µM | 17.49 ± 0 µM | 35 µM and 35 ± 0 µM | 34.97 ± 0 µM | 35 µM and 35 ± 0 µM | 34.97 ± 0 µM | >100 µM | > 100 µM | 17 µM and 17 ± 0 µM | 17.49 ± 0 µM | 36.5 % of control | 0.362 ± 0.033 µM | – |
| Cn1cc(C(=O)O)[n+](C)[c]1[Au-][c]1n(C)cc(C(=O)O)[n+]1C.[Cl-] [3a] | – | – | – | – | – | – | 31.2 ± 4.90 µM | – | > 100 µM | – | 62.4 ± 0 µM | – | 62.4 ± 0 µM | – | 62.4 ± 0 µM | – | > 100 µM | – | – | – |
| CCOC(=O)c1cn(C)[c]([Au-]([Cl])([Cl])[Cl])[n+]1C [4c] | 17.9 µM | 28.4 µM | 14.6 µM | 11.1 µM | 20.7 µM | 8 µM and 8 ± 1 µM | 8.48 ± 1.33 µM | 17 µM and 17 ± 0 µM | 16.97 ± 0 µM | 34 µM and 34 ± 0 µM | 33.93 ± 0 µM | 34 µM and 34 ± 5 µM | 33.93 ± 5.33 µM | >100 µM | > 100 µM | 17 µM and 17 ± 2 µM | 16.97 ± 2.67 µM | 28.5 % of control | 0.381 ± 0.053 µM | – |
| Cn1cc(C(=O)O)[n+](C)[c]1[Au-]([Cl])([Cl])[Cl] [4a] | 36.1 µM | > 90 µM | 47.8 µM | 31.8 µM | 42.4 µM | 36 ± 3 µM | 36.08 ± 2.83 µM | >100 µM | > 100 µM | 72 ± 0 µM | 72.16 ± 0 µM | 36 ± 6 µM | 36.08 ± 5.67 µM | >100 µM | > 100 µM | >100 µM | > 100 µM | 86.1 % of control | – | – |
| CCOC(=O)c1cn(C)[c]([Au-][c]2n(C)cc(C(=O)OCC)[n+]2C)[n+]1C.F[B-](F)(F)F [3c] | 1.07 µM | 5.78 µM | 4.64 µM | 2.51 µM | 31.5 µM | – | > 100 µM | – | > 100 µM | – | > 100 µM | – | > 100 µM | – | > 100 µM | – | 25.79 ± 0 µM | 115 % of control | – | clear preference for the tumour cell lines |
| CC(=O)OC[C@H]1O[C@@H]([S-])[C@H](OC(C)=O)[C@@H](OC(C)=O)[C@@H]1OC(C)=O.CCP(CC)CC.[Au+] [AF, auranofin, reference compound] | 3.53 µM | 4.32 µM | 1.89 µM | 0.8 µM | 2.4 µM | 55 µM | 55 µM | 0.3 µM | 0.3 µM | 46 µM | 46 µM | 81 µM | 81 µM | >100 µM | > 100 µM | 0.4 µM | 0.4 µM | – | 0.21 ± 0.03 µM | – |
| COC(=O)c1cn(C)[c]([Au-][Cl])[n+]1C [2b] | 22.7 µM | 19.8 µM | 23.8 µM | 12.8 µM | – | 10 µM and 10 ± 0 µM | 10.35 ± 0 µM | 10 µM and 10 ± 0 µM | 10.35 ± 0 µM | 41 µM and 41 ± 0 µM | 41.39 ± 0 µM | 41 µM and 41 ± 0 µM | 41.39 ± 0 µM | >100 µM | > 100 µM | 10 µM and 10 ± 0 µM | 10.35 ± 0 µM | 8.9 % of control | 0.293 ± 0.163 µM | – |
| COC(=O)c1cn(C)[c]([Au-][c]2n(C)cc(C(=O)OC)[n+]2C)[n+]1C.O=S(=O)([O-])C(F)(F)F [3b] | 5.21 µM | 27.7 µM | 34.4 µM | 19.2 µM | > 100 µM | – | > 100 µM | – | > 100 µM | – | > 100 µM | – | > 100 µM | – | > 100 µM | – | > 100 µM | 106 % of control | – | clear preference for the tumour cell lines |
